# Source: patent US20040043420A1, “Method of identifying conformation-sensitive binding peptides and uses thereof” (priority 2003, published 2004)
# T1: androgen receptor (Homo sapiens, UniProt P10275)
# T1 sequence (P10275 1-920): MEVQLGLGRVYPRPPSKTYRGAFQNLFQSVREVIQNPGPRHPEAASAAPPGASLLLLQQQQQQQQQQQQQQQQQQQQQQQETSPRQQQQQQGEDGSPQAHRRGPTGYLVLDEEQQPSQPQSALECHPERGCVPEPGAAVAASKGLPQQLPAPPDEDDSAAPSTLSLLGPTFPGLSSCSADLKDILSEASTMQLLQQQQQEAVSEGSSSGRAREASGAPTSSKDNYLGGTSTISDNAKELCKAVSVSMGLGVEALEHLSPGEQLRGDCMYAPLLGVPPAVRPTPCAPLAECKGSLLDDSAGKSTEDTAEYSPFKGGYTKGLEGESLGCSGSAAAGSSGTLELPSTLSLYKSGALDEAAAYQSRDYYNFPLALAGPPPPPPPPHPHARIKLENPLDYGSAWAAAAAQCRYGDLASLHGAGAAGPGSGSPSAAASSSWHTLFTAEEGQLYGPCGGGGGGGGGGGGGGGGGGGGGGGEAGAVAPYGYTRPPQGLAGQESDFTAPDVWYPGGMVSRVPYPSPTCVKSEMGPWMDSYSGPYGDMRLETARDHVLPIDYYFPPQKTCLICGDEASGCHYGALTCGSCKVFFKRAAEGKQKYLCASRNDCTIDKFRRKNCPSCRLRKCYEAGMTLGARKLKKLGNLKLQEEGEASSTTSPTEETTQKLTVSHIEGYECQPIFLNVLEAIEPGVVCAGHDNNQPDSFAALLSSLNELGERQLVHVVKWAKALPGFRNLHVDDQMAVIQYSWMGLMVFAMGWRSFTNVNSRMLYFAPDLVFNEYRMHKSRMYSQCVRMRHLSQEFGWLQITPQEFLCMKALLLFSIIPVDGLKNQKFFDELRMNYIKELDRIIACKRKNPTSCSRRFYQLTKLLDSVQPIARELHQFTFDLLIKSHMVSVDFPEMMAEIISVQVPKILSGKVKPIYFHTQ
# T2: ER α, P03372
# T2 chain: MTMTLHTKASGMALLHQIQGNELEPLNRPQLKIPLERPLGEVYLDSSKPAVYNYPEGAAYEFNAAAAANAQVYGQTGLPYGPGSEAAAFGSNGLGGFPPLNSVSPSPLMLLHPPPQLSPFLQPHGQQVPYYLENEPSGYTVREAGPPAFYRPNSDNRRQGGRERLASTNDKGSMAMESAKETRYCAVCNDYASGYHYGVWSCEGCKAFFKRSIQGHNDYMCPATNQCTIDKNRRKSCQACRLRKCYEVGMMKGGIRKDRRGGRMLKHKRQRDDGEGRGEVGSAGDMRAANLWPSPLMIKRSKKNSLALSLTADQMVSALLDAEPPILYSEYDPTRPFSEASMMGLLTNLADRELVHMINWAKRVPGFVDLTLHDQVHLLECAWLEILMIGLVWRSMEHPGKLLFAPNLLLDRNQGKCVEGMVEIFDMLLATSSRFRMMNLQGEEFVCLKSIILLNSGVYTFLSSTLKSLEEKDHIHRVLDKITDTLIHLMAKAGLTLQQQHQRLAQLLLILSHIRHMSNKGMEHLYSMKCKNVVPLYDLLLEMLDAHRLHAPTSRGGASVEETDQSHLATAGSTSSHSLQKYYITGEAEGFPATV
# Experiments:
# androgen receptor [1] = target: T1, androgen receptor; type: cell-based; design: expressed in transfected cells
# From the text: We used a mammalian two-hybrid system to determine specificities of the AR-binding peptides previously identified, through screening of the aforementioned yeast library, as ligand-dependent in their binding activity. Ligand was provided to the cells so the interaction could be observed. The human hepatoma cell line, Huh-7, was used as the recipient of two-hybrid vectors, pM and pVP16 (Clontech) (FIGS. 6A and 6B), containing fusions with peptide and AR, respectively. According to Clontech literature, the Clontech vectors pM and VP16 generate fusions of protein X with the GAL4 DNA-BD and fusions of protein Y with the VP16AD, in the Mammalian MM Two-Hybrid Assay Kit (#K1602-1). (Note: pM and VP16 contain unique cloning sites in the same order and reading frame as the DNA-BD and AD, respectively, vectors in the yeast […] Two-Hybrid Systems.) A third vector, pG5CAT, provides a CAT reporter gene under the control of a GAL4-responsive element and minimal promoter of the adenovirus E1b. The three vectors are cotransfected into any suitable mammalian host cell line by standard methods. The interaction between proteins X and Y is then assayed by measuring CAT gene expression by any standard method. In the absence-of activation (i.e., no protein-protein interaction), the minimal E1b promoter will not express significant levels of CAT.
# Briefly, cells are seeded in a 24-well culture plate to a density of 50-80% confluence in phenol red-free media containing charcoal-dextran stripped fetal bovine serum (10%). Following incubation overnight, cells are transfected with plasmids pM-peptide, pVP16-AR, pCMV-b-gal, and p5XGAL-Luc3 DNAs using lipofectamine 2000 (LifeTech) according to the manufacturer's protocol. Transfections are allowed to proceed for 6 hours and the transfection media is aspirated and replaced with recovery media for 18 hours. Following the recovery period, cells are treated with compound for 24 hours prior to cell harvesting. Cells are washed with PBS and then lysed using the lysis buffer from the Galacto-Light Plus β-galactosidase assay kit (Tropix). Assays for luciferase and β-galactosidase were performed as described by the manufacturer. Peptide/AR interactions are described in terms of the luciferase activity normalized for transfection efficiency using β-galactosidase activity (see FIG. 4A). Two types of useful information arose from these methods: 1) we generated a panel of useful peptide probes to analyze the conformational state of AR, and 2) we “fingerprinted” AR modulators with respect to AR conformation (FIG. 4B). […] FIG. 4B is the converse of 4A. It compares the ability of six ligands (DHT, MPA, CYP, RU486, FLUT and DHEAs to interact with AR in the presence of each of four peptides (D30, 5G11, B8H3 and […]). Thus, it is a “fingerprint” of each of the six ligands using a four peptide panel. (Note that “1269” and D30″ refer to the same peptide.)
# androgen receptor [2] = target: T1, androgen receptor; type: cell-based; design: expressed in transfected cells; remark: listed apart in the source
# androgen receptor [3] = target: T1, androgen receptor; assay: Yeast two-hybrid screening of unbiased X15 peptide library, ligand-induced β-galactosidase activity (FIG. 3, Table 503); type: cell-based; design: expressed in transfected cells; host or cells: Saccharomyces cerevisiae PJ69-4α
# From the text: Our library contained predominantly 15 random amino acid residues/peptide in order to identify motifs that might interact with nuclear receptor domains. If ligand is provided to the cells, one can screen for peptides that interact with the ligand-bound receptor. […] Included at the ends of the oligonucleotide were the synthetic restriction endonuclease cleavage sites, EcoRI or Mfe I (5′ end) and Sal I (3′ end). Oligonucleotides were annealed, then cleaved with excess restriction endonuclease and purified on agarose gels. The purified set of oligonucleotides was subcloned as an in-frame carboxy-terminal fusion to a Gal4 DNA binding domain (plasmid vector pMA424 derivative). […] The transformation mix was divided and grown on plates of selective media containing ligand and 25 mM 3-aminotriazole at 30° C. until colonies appeared in 3-7 days. […] Dihydrotestosterone (DHT) and medroxyprogesterone (MPA) were added to the media at 100 nM to identify peptides that interact with the receptor in the presence of ligand. After colonies appeared they were picked and dispersed into individual wells of a 96-well plate containing rich media (YPD).
# To determine ligand dependence, two microliter aliquots were removed from the cell suspension, and arrayed and spotted onto each of two rectangular agar plates, one with 100 nM ligand and one without ligand. Growth was monitored daily.
# A secondary test of ligand dependent activation was performed using the integrated GAL4-driven lacZ gene. Cell suspensions of the initial positive clones were diluted 20-fold into 20 microliters of rich media in a microplate and grown overnight at 30° C. in the presence and absence of ligand. Microplates were centrifuged for 5 minutes at 3000 rpm in a swinging table top centrifuge to pellet the yeast cells, and the overlying media was aspirated. […] An OD650 density determination was made to normalize the β-galactosidase activity. β-galactosidase activity was monitored following the addition of buffer containing chlorophenol red-1-galactopyranoside (CPRG) (Boehringer Mannheim) substrate at a final concentration of 0.5 mM. […] The maximum slope value of this measurement was normalized to cell density from the initial OD650 value, and the relative ligand dependence of β-galactosidase was determined by comparing the values plus and minus ligand.
# In FIG. 3, all of these ligands were tested. The plasmids from true positives were extracted using standard yeast extraction protocols and re-transformed to verify the positive phenotype.
# ER α, P03372 = target: T2, ER α, P03372; assay: peptide probe binding to ERα, all modulators
Molecule,Mammalian Cell Specificity Graph (FIG. 4): CYP. (androgen receptor [1]) [Relative Light Units],Mammalian Cell Specificity Graph (FIG. 4): DHT (androgen receptor [1]; ligand DHT) [Relative Light Units],Mammalian Cell Specificity Graph (FIG. 4): MPA (androgen receptor [1]; ligand MPA) [Relative Light Units],Mammalian Cell Specificity Graph (FIG. 4): RU486 (androgen receptor [1]; ligand RU486) [Relative Light Units],Mammalian Cell Specificity Graph (FIG. 4): no compound (androgen receptor [1]; no compound) [Relative Light Units],"Binding to the androgen receptor in the presence of agonists and known antagonists (androgen receptor [2]; ligand present (agonists, known antagonists))",Binding to the androgen receptor in the absence of ligand (androgen receptor [2]; no ligand),Fold induction (androgen receptor [3]),Yeast Specificity Graph (FIG. 3): CPA (androgen receptor [3]; ligand CPA),Yeast Specificity Graph (FIG. 3): DHT (androgen receptor [3]; ligand DHT),Yeast Specificity Graph (FIG. 3): RU (androgen receptor [3]; ligand RU),Yeast Specificity Graph (FIG. 3): No Lig (androgen receptor [3]; no ligand),"Equiv. (ER α, P03372) [%]"
EFQQCMCAEVKSWLGGSLDLOPS* [B8E9],16.02,19.64,18.51,10.1916,0.2091,displays binding,not in the absence of ligand,4,0.5635,1.75,0.8,0.4989,
SRTWESPLGTWEWSR (modifications not checked) [#13 ER],,,,,,,,,,,,,0
